Results: patent publication US6218400A, “Treatment method using a cGMP-Specific PDE inhibitor” (ICOS Corporation, priority 1995, dated 2001)

How the values were obtained:
human recombinant PDE V = human recombinant PDE V (Homo sapiens, UniProt O76074); test: Inhibitory effect on cGMP-PDE (one-step assay, human recombinant PDE V); format: biochemical; conditions: 0.15 μM 8-[H^3]-cGMP, 2% DMSO, 30 minutes
Procedure: cGMP-PDE activity of compounds of the present invention was measured using a one-step assay adapted from Wells at al. (Wells, J. N., Baird, C. E., Wu, Y. J. and Hardman, J. G., Biochim. Biophys. Acta 384, 430 (1975)). The reaction medium contained 50 mM Tris-HCl,pH 7.5, 5 mM Mg-acetate, 250 μg/ml 5'-Nucleotidase, 1 mM EGTA and 0.15 μM 8-[H^3 ]-cGMP. The enzyme used was a human recombinant PDE V (ICOS, Seattle USA).
Compounds of the invention were dissolved in DMSO finally present at 2% in the assay.

[1] = test system: conscious spontaneously hypertensive rats (SHRs); test: Hypotensive effects in conscious spontaneously hypertensive rats; format: in vivo, rat; conditions: AUC from 0 to 5 hours
Procedure: The hypotensive effects of compounds according to the invention as identified in Table 2 were studied in conscious spontaneously hypertensive rats (SHRs). The compounds were administered orally at a dose of 5 or 10 mg/kg in a mixture of 5% DMF and 95% olive oil, or i.v. at a dose of 10 mg/kg in a mixture of 40% dimethylformamide, 25% tetraglycol, and […]. Blood pressure was measured from a catheter inserted in the carotid artery and recorded for 5 hours after administration. The results are expressed as Area Under the Curve (AUC from 0 to 5 hours, mmHg.hour) of the fall in blood pressure over time.

[2] = test system: Rat aortic smooth muscle cells (RSMC); test: cGMP level measurements in rat aortic smooth muscle cells (RSMC); format: cell-based; conditions: 10 min, cGMP after ANF (100 nM) stimulation for 10 minutes, dose giving half of the stimulation at saturating concentrations
Procedure: Rat aortic smooth muscle cells (RSMC) prepared according to Chamley et al. in Cell Tissue Res. 177, 503-522 (1977) were used between the 10th and 25th passage at confluence in 24-well culture dishes. Culture media was aspirated and replaced with PBS (0.5 ml) containing the compound tested at the appropriate concentration. After 30 minutes at 37° C., particulates guanylate cyclase was stimulated by addition of ANF (100 nM) for 10 minutes. At the end of incubation, the medium was withdrawn and two extractions were performed by addition of 65% ethanol (0.25 ml). The two ethanolic extracts were pooled and evaporated until dryness, using a Speed-vac system. c-GMP was measured after acetylation by scintillation proximity immunoassay ([…]). The EC50 values are expressed as the dose giving half of the stimulation at saturating concentrations

Row | SMILES | IC50 (human recombinant PDE V) [nM] | AUC of the fall in blood pressure over time ([1]; dosed at 5 mg/kg p.o.) [mmHg·h] | EC50 [2] [nM] | AUC of the fall in blood pressure over time ([1]; dosed at 10 mg/kg i.v.) [mmHg·h]
1 | O=C1[C@H]2Cc3c([nH]c4ccccc34)[C@H](c3ccc4c(c3)OCO4)N2C(=O)N1Cc1ccccc1 (relative stereo) [1 (cis isomer), Cis-2-benzyl-5-(3,4-methylenedioxyphenyl)-5,6,11,11a-tetrahydro-1H-imidazo [1',5':1,6]pyrido[3,4-b]indole-1,3(2H)-dione] | < 10 | 104 | 300 | 
2 | COc1ccc([C@H]2c3[nH]c4ccccc4c3C[C@@H]3C(=O)N(C4CCCCC4)C(=O)N23)cc1 (relative stereo) [26 (cis isomer), Cis-2-cyclohexyl-5-(4-methoxyphenyl)-5,6,11,11a-tetrahydro-1H-imidazo [1',5':1,6] pyrido[3,4-b]indole-1,3(2H)-dione] | 7 |  | 300 | 117
3 | CCCCN1C(=O)[C@@H]2Cc3c([nH]c4ccccc34)[C@H](c3ccc(OC)cc3)N2C1=O (relative stereo) [Example 10, Trans-2-butyl-5-(4-methoxyphenyl)-5,6,11,11a-tetrahydro-1H-imidazo [1',5':1,6] pyrido[3,4-b]indole-1,3(2H)-dione] |  |  | < 1000 | 147
4 | O=C1[C@H]2Cc3c([nH]c4ccccc34)[C@@H](c3ccc4c(c3)OCO4)N2C(=O)N1Cc1ccccc1 [Example 32, (5R,11aR)-2-benzyl-5-(3,4-methylenedioxyphenyl)-5,6,11,11a-tetrahydro-1H-imidazo [1',5':1,6]pyrido[3,4-b]indole-1,3(2H)-dione] | < 10 | 65 | 200 | 
